Results published in ChEMBL document CHEMBL3885881, “DrugMatrix”.

Species: Rattus norvegicus
Test: DrugMatrix - Regimen: Daily Repeat
Format: toxicity, organism-based, Sprague-Dawley
Design: regimen Daily Repeat, gender Male, age 6-8 weeks
Conditions: in vivo, po, route oral GAVAGE, […]; for ABSOLUTE BASOPHIL / BASOPHIL / ABSOLUTE EOSINOPHIL / ABSOLUTE LYMPHOCYTE / ABSOLUTE MONOCYTE / ABSOLUTE SEGMENTED NEUTROPHIL / EOSINOPHIL / ERYTHROCYTE COUNT / HEMATOCRIT / HEMOGLOBIN / LEUKOCYTE COUNT / LYMPHOCYTE / MEAN CORPUSCULAR HEMOGLOBIN / MEAN CORPUSCULAR HEMOGLOBIN CONCENTRATION / MEAN CORPUSCULAR VOLUME / MONOCYTE / NEUTROPHIL / NUCLEATED RED BLOOD CELLS / PLATELET COUNT: tissue Blood; for ALANINE AMINOTRANSFERASE / ALBUMIN / ALKALINE PHOSPHATASE / ASPARTATE AMINOTRANSFERASE / BLOOD UREA NITROGEN / CARBON DIOXIDE / CHOLESTEROL / CREATINE PHOSPHOKINASE / CREATININE / GLUCOSE / LACTATE DEHYDROGENASE / LIPASE / TOTAL BILIRUBIN / TOTAL PROTEIN / URIC ACID: tissue Plasma
[1] = 0 mg/kg, 72 h, dose level Control, time 3 day
[2] = 0 mg/kg, 120 h, dose level Control, time 5 day
[3] = 10 mg/kg, 72 h, dose level M1, time 3 day
[4] = 10 mg/kg, 120 h, dose level M1, time 5 day
[5] = 32 mg/kg, 72 h, dose level M2, time 3 day
[6] = 32 mg/kg, 120 h, dose level M2, time 5 day

## CC/C(=C(\c1ccccc1)c1ccc(OCCN(C)C)cc1)c1ccccc1 [TAMOXIFEN]
[1]
  ABSOLUTE BASOPHIL: 0 CELLS/uL
  BASOPHIL: 0%
[2]
  ABSOLUTE BASOPHIL: 0 CELLS/uL
  BASOPHIL: 0%
[3]
  ABSOLUTE BASOPHIL: 0 CELLS/uL
  ABSOLUTE EOSINOPHIL: 39 CELLS/uL
  ABSOLUTE LYMPHOCYTE: 8296.33 CELLS/uL
  ABSOLUTE MONOCYTE: 168.33 CELLS/uL
  ABSOLUTE SEGMENTED NEUTROPHIL: 529.67 CELLS/uL
  BASOPHIL: 0%
  EOSINOPHIL: 0.33%
  ERYTHROCYTE COUNT: 5.69 x10E6/uL
  HEMATOCRIT: 36.07%
  HEMOGLOBIN: 13.53 G/DL
  LEUKOCYTE COUNT: 9.03 x10E3/uL
  LYMPHOCYTE: 92.33%
  MEAN CORPUSCULAR HEMOGLOBIN: 23.9 pg
  MEAN CORPUSCULAR HEMOGLOBIN CONCENTRATION: 37.57 G/DL
  MEAN CORPUSCULAR VOLUME: 63.63 fL
  MONOCYTE: 1.67%
  NEUTROPHIL: 5.67%
  NUCLEATED RED BLOOD CELLS: 0 /100WBC
  PLATELET COUNT: 1296.33 x10E3/uL
  ALANINE AMINOTRANSFERASE: 62.67 u/L
  ALBUMIN: 4 G/DL
  ALKALINE PHOSPHATASE: 415 u/L
  ASPARTATE AMINOTRANSFERASE: 79.33 u/L
  BLOOD UREA NITROGEN: 9.67 mg/dL
  CARBON DIOXIDE: 28.33 mmol/L
  CHOLESTEROL: 52.67 mg/dL
  CREATINE PHOSPHOKINASE: 228 u/L
  CREATININE: 0.2 mg/dL
  GLUCOSE: 179 mg/dL
  LACTATE DEHYDROGENASE: 97.33 u/L
  LIPASE: 9.33 u/L
  TOTAL BILIRUBIN: 0.13 mg/dL
  TOTAL PROTEIN: 5.57 G/DL
  URIC ACID: 1.9 mg/dL
[4]
  ABSOLUTE BASOPHIL: 0 CELLS/uL
  ABSOLUTE EOSINOPHIL: 119.33 CELLS/uL
  ABSOLUTE LYMPHOCYTE: 10935 CELLS/uL
  ABSOLUTE MONOCYTE: 173 CELLS/uL
  ABSOLUTE SEGMENTED NEUTROPHIL: 706 CELLS/uL
  BASOPHIL: 0%
  EOSINOPHIL: 1%
  ERYTHROCYTE COUNT: 6.34 x10E6/uL
  HEMATOCRIT: 39.5%
  HEMOGLOBIN: 15 G/DL
  LEUKOCYTE COUNT: 11.93 x10E3/uL
  LYMPHOCYTE: 91.67%
  MEAN CORPUSCULAR HEMOGLOBIN: 23.67 pg
  MEAN CORPUSCULAR HEMOGLOBIN CONCENTRATION: 37.97 G/DL
  MEAN CORPUSCULAR VOLUME: 62.37 fL
  MONOCYTE: 1.33%
  NEUTROPHIL: 6%
  NUCLEATED RED BLOOD CELLS: 0 /100WBC
  PLATELET COUNT: 1194 x10E3/uL
  ALANINE AMINOTRANSFERASE: 55.67 u/L
  ALBUMIN: 4.53 G/DL
  ALKALINE PHOSPHATASE: 463 u/L
  ASPARTATE AMINOTRANSFERASE: 84 u/L
  BLOOD UREA NITROGEN: 10.33 mg/dL
  CARBON DIOXIDE: 27 mmol/L
  CHOLESTEROL: 49.33 mg/dL
  CREATINE PHOSPHOKINASE: 234 u/L
  CREATININE: 0.24 mg/dL
  GLUCOSE: 120 mg/dL
  LACTATE DEHYDROGENASE: 120 u/L
  LIPASE: 9.33 u/L
  TOTAL BILIRUBIN: 0.1 mg/dL
  TOTAL PROTEIN: 6.33 G/DL
  URIC ACID: 2.4 mg/dL
[5]
  ABSOLUTE BASOPHIL: 0 CELLS/uL
  ABSOLUTE EOSINOPHIL: 54 CELLS/uL
  ABSOLUTE LYMPHOCYTE: 12289.67 CELLS/uL
  ABSOLUTE MONOCYTE: 92.33 CELLS/uL
  ABSOLUTE SEGMENTED NEUTROPHIL: 964 CELLS/uL
  BASOPHIL: 0%
  EOSINOPHIL: 0.33%
  ERYTHROCYTE COUNT: 6.02 x10E6/uL
  HEMATOCRIT: 39.07%
  HEMOGLOBIN: 14.67 G/DL
  LEUKOCYTE COUNT: 13.4 x10E3/uL
  LYMPHOCYTE: 91.67%
  MEAN CORPUSCULAR HEMOGLOBIN: 24.4 pg
  MEAN CORPUSCULAR HEMOGLOBIN CONCENTRATION: 37.53 G/DL
  MEAN CORPUSCULAR VOLUME: 64.97 fL
  MONOCYTE: 0.67%
  NEUTROPHIL: 7.33%
  NUCLEATED RED BLOOD CELLS: 0 /100WBC
  PLATELET COUNT: 1258 x10E3/uL
  ALANINE AMINOTRANSFERASE: 66.67 u/L
  ALBUMIN: 4.63 G/DL
  ALKALINE PHOSPHATASE: 371.33 u/L
  ASPARTATE AMINOTRANSFERASE: 106.67 u/L
  BLOOD UREA NITROGEN: 5.67 mg/dL
  CARBON DIOXIDE: 26.33 mmol/L
  CHOLESTEROL: 43.33 mg/dL
  CREATINE PHOSPHOKINASE: 723.67 u/L
  CREATININE: 0.2 mg/dL
  GLUCOSE: 150.33 mg/dL
  LACTATE DEHYDROGENASE: 184.33 u/L
  LIPASE: 9.33 u/L
  TOTAL BILIRUBIN: 0.1 mg/dL
  TOTAL PROTEIN: 6.03 G/DL
  URIC ACID: 2.5 mg/dL
[6]
  ABSOLUTE BASOPHIL: 0 CELLS/uL
  ABSOLUTE EOSINOPHIL: 0 CELLS/uL
  ABSOLUTE LYMPHOCYTE: 12430.67 CELLS/uL
  ABSOLUTE MONOCYTE: 227.33 CELLS/uL
  ABSOLUTE SEGMENTED NEUTROPHIL: 2075.33 CELLS/uL
  BASOPHIL: 0%
  EOSINOPHIL: 0%
  ERYTHROCYTE COUNT: 6.29 x10E6/uL
  HEMATOCRIT: 39.17%
  HEMOGLOBIN: 14.9 G/DL
  LEUKOCYTE COUNT: 14.73 x10E3/uL
  LYMPHOCYTE: 84.33%
  MEAN CORPUSCULAR HEMOGLOBIN: 23.7 pg
  MEAN CORPUSCULAR HEMOGLOBIN CONCENTRATION: 38.07 G/DL
  MEAN CORPUSCULAR VOLUME: 62.27 fL
  MONOCYTE: 1.67%
  NEUTROPHIL: 14%
  NUCLEATED RED BLOOD CELLS: 0 /100WBC
  PLATELET COUNT: 1261.33 x10E3/uL
  ALANINE AMINOTRANSFERASE: 65.67 u/L
  ALBUMIN: 4.73 G/DL
  ALKALINE PHOSPHATASE: 464.33 u/L
  ASPARTATE AMINOTRANSFERASE: 99 u/L
  BLOOD UREA NITROGEN: 11.33 mg/dL
  CARBON DIOXIDE: 27.33 mmol/L
  CHOLESTEROL: 40.33 mg/dL
  CREATINE PHOSPHOKINASE: 288.67 u/L
  CREATININE: 0.23 mg/dL
  GLUCOSE: 136.67 mg/dL
  LACTATE DEHYDROGENASE: 164.33 u/L
  LIPASE: 9.67 u/L
  TOTAL BILIRUBIN: 0.1 mg/dL
